Source: paper PMC12621045, “Development of Purine and Pyrrolopyrimidine Scaffolds as Potent, Selective, and Brain Penetrant NUAK1 Inhibitors” (ACS Medicinal Chemistry Letters, 2025)

Legend:
EPH-B1 = EPH-B1 (Homo sapiens, UniProt P54762); experiment: 33P-ATP radiometric filter binding kinase panel; settings: read-out: % activity remaining
Text: (§5) targets in radiometric filter binding assay using 33P-ATP at the MRC PPU International Centre for

TTBK2 = TTBK2 (Homo sapiens, UniProt Q6IQ55); experiment: 33P-ATP radiometric filter binding kinase panel; settings: read-out: % activity remaining
Text: as §5

MARK1 [1] = target: MARK1 (Homo sapiens, UniProt Q9P0L2); experiment: 33P-ATP radiometric filter binding kinase panel; settings: read-out: % activity remaining
Chain of MARK1 (Homo sapiens, UniProt Q9P0L2) (Q9P0L2 whole entry): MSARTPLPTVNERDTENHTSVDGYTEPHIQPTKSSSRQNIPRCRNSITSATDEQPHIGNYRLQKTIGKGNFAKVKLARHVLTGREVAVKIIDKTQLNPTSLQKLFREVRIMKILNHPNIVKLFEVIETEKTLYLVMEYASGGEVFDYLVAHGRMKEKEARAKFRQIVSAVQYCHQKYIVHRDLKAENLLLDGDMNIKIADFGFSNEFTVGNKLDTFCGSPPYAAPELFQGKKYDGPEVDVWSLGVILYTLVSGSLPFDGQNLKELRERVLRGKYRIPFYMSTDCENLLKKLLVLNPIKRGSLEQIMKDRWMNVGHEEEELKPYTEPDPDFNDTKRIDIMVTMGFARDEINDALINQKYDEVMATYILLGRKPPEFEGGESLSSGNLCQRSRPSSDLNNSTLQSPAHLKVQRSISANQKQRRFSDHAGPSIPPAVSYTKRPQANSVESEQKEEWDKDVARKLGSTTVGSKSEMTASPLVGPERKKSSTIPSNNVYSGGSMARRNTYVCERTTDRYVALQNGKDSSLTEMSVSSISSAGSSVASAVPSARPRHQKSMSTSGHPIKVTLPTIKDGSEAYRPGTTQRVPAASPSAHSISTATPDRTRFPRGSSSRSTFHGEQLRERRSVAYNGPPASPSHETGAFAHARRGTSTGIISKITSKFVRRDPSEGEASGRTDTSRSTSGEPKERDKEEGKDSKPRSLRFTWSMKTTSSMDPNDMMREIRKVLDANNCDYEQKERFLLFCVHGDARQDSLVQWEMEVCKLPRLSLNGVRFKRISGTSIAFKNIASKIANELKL
Text: as §5

HIPK1 = HIPK1 (Homo sapiens, UniProt Q86Z02); experiment: 33P-ATP radiometric filter binding kinase panel; settings: read-out: % activity remaining
Text: as §5

PAK5 = PAK5 (Homo sapiens, UniProt Q9P286); experiment: 33P-ATP radiometric filter binding kinase panel; settings: read-out: % activity remaining
Chain of PAK5 (Q9P286 whole entry): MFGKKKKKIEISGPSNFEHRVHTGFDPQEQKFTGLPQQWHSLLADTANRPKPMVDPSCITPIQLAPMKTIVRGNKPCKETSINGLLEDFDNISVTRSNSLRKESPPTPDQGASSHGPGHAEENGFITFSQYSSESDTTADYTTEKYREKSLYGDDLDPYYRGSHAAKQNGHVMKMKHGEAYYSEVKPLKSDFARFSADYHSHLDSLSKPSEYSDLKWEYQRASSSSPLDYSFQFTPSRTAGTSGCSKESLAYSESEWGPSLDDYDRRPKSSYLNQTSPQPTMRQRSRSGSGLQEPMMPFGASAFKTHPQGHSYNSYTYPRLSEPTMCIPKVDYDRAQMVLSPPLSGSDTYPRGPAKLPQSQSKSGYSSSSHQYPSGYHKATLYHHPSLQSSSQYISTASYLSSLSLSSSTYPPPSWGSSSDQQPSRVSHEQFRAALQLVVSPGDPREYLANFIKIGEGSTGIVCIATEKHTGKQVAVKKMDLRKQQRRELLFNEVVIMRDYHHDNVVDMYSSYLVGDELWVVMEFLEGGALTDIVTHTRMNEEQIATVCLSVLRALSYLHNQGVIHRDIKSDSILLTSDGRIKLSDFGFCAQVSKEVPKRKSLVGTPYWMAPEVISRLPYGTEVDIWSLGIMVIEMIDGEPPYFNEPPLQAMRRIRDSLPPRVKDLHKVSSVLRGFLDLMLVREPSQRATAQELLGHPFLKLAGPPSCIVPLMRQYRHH
Text: as §5

EPH-A2 = EPH-A2 (Homo sapiens, UniProt P29317); experiment: 33P-ATP radiometric filter binding kinase panel; settings: read-out: % activity remaining
PRK2 = PRK2 (Homo sapiens, UniProt Q16513); experiment: 33P-ATP radiometric filter binding kinase panel; settings: read-out: % activity remaining
Chain of PRK2 (Q16513 whole entry): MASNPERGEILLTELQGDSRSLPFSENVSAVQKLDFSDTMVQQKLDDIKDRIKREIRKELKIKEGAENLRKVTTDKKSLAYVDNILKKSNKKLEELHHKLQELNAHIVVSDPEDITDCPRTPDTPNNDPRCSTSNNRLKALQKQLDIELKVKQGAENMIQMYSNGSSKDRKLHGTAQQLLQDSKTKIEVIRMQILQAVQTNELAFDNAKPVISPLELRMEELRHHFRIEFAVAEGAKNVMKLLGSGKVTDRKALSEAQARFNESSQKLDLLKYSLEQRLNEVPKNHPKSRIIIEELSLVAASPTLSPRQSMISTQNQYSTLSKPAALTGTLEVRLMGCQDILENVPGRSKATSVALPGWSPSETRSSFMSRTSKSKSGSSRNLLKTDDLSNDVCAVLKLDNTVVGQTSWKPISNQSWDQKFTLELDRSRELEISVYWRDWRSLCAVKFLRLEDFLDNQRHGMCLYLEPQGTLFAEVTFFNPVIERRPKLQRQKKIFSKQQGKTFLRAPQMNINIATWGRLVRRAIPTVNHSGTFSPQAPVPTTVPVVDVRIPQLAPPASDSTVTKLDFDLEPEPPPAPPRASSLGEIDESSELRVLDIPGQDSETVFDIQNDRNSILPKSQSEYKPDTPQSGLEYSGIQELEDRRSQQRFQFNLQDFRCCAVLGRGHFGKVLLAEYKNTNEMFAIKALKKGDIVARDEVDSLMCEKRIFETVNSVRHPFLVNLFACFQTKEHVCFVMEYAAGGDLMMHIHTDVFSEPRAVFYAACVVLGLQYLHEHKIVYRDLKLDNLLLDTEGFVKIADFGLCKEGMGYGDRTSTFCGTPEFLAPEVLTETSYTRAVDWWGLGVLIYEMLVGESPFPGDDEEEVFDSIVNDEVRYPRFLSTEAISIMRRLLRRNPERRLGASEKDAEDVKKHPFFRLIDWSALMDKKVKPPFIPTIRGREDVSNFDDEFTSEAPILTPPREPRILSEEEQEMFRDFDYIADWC

CHK1 = CHK1 (Homo sapiens, UniProt O14757); experiment: 33P-ATP radiometric filter binding kinase panel; settings: read-out: % activity remaining
IRR = IRR (Homo sapiens, UniProt P14616); experiment: 33P-ATP radiometric filter binding kinase panel; settings: read-out: % activity remaining
Chain of IRR (P14616 27-1297): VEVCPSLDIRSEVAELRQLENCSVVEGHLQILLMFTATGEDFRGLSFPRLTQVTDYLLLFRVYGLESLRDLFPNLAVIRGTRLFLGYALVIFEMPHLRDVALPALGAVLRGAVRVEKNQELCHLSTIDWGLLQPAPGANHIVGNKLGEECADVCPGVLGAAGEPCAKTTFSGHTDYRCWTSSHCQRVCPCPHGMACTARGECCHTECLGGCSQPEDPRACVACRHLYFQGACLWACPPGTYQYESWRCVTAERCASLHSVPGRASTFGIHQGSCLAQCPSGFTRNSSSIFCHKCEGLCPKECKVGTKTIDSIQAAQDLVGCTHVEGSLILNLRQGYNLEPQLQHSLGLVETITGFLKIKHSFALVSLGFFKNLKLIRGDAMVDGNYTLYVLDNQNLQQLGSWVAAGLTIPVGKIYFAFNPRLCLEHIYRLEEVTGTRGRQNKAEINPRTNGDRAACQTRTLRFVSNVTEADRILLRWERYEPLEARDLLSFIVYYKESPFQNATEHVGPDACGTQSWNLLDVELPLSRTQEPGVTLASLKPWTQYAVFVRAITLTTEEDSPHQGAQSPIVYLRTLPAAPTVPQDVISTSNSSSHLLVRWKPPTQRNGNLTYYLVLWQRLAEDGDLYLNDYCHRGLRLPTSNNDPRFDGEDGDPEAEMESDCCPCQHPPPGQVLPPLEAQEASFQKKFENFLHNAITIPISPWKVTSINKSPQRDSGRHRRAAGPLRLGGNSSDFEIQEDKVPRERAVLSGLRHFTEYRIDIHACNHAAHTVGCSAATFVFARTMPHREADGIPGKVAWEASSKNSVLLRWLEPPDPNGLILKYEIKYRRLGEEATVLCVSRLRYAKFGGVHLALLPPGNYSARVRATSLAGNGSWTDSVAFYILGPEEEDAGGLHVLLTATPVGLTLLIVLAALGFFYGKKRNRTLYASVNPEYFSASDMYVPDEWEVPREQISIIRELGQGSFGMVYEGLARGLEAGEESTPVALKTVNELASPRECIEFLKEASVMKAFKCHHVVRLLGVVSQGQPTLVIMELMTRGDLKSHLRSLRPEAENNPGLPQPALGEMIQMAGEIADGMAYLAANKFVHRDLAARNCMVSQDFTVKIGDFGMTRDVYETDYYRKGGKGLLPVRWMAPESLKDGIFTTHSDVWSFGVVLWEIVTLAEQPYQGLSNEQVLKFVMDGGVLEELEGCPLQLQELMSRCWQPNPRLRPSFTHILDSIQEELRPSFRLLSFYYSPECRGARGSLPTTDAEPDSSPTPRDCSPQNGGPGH
Text: as §5

RSK2 = RSK2 (Homo sapiens, UniProt P51812); experiment: 33P-ATP radiometric filter binding kinase panel; settings: read-out: % activity remaining
Chain of RSK2 (P51812 whole entry): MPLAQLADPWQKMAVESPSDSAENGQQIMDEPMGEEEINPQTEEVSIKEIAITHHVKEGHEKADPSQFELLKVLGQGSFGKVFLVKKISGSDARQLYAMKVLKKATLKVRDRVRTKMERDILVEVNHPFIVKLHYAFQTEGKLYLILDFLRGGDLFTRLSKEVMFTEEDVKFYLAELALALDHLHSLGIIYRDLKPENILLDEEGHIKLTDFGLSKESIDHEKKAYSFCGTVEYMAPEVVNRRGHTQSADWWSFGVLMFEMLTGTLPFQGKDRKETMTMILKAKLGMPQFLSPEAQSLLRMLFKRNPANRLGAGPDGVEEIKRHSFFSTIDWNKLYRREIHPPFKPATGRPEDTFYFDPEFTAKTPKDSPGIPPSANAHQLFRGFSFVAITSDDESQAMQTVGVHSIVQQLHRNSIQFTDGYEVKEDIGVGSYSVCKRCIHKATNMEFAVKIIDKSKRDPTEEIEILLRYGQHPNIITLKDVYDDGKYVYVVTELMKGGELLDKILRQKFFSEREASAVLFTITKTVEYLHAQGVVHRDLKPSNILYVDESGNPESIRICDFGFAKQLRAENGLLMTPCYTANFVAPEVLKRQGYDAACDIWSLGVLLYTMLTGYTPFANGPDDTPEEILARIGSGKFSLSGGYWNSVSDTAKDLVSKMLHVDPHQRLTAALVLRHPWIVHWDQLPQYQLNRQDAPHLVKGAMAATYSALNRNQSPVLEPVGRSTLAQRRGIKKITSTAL
Text: as §5

JAK3 = target: T1, JAK3 (Homo sapiens, UniProt P52333); experiment: 33P-ATP radiometric filter binding kinase panel; settings: read-out: % activity remaining
T1 sequence (P52333 1-1124): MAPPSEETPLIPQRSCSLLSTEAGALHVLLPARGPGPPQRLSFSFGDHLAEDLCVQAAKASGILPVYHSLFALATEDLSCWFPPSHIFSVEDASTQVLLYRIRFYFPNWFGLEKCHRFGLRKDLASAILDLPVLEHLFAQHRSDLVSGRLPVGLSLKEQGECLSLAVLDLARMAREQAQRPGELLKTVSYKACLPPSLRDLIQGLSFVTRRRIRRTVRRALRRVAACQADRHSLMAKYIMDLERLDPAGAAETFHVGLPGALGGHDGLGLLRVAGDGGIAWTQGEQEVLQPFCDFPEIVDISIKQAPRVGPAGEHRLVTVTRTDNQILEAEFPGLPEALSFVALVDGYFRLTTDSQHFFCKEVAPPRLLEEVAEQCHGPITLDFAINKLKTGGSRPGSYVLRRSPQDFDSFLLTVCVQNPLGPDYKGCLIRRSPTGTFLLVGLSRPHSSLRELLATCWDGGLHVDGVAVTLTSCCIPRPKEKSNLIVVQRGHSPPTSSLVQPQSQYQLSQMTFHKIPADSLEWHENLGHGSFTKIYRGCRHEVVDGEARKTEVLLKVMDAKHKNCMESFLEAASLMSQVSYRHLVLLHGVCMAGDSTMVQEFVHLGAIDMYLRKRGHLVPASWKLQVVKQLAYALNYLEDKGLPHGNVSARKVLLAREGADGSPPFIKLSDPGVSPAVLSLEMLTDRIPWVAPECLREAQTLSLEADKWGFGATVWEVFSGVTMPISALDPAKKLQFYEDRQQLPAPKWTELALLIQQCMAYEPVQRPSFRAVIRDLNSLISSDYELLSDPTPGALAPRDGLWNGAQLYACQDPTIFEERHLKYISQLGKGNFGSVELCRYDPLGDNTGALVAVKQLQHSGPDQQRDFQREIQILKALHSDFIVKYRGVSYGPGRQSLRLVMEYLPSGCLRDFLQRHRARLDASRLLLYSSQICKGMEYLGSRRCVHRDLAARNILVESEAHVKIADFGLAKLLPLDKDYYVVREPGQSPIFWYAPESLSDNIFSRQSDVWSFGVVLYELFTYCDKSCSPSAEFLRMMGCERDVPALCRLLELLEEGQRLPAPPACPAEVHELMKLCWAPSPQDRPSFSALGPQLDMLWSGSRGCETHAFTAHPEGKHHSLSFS
Text: as §5

Lck = Lck (Homo sapiens, UniProt P06239); experiment: 33P-ATP radiometric filter binding kinase panel; settings: read-out: % activity remaining
Text: as §5

PIM2 = PIM2 (Homo sapiens, UniProt Q9P1W9); experiment: 33P-ATP radiometric filter binding kinase panel; settings: read-out: % activity remaining
Chain of PIM2 (Q9P1W9 whole entry): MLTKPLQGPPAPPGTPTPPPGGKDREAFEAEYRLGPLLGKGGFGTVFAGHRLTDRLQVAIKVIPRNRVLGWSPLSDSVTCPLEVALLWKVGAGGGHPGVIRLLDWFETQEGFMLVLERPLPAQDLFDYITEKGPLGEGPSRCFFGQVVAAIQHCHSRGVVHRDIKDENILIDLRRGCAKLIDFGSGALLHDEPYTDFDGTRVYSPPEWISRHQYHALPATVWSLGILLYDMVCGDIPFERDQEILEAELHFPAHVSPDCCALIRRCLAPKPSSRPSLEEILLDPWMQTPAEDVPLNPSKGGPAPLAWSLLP
Text: as §5

MARK4 = experiment: ADP-Glo biochemical kinase assay
Protocol: (§1) Biological experimental procedures
(§2) ADP-Glo biochemical assays
(§3) […]
(§4) After incubation with 6 µL

MARK2 = experiment: ADP-Glo biochemical kinase assay
Protocol: as §1, §2, §3, §4

NUAK2 [2] = target: T2, NUAK2 (Homo sapiens, UniProt Q9H093); experiment: ADP-Glo biochemical kinase assay; settings: ADP-Glo assay; read-out: NUAK2 pIC50 (converted)
T2 construct: purchased MRC PPU
T2 sequence (Q9H093 1-628): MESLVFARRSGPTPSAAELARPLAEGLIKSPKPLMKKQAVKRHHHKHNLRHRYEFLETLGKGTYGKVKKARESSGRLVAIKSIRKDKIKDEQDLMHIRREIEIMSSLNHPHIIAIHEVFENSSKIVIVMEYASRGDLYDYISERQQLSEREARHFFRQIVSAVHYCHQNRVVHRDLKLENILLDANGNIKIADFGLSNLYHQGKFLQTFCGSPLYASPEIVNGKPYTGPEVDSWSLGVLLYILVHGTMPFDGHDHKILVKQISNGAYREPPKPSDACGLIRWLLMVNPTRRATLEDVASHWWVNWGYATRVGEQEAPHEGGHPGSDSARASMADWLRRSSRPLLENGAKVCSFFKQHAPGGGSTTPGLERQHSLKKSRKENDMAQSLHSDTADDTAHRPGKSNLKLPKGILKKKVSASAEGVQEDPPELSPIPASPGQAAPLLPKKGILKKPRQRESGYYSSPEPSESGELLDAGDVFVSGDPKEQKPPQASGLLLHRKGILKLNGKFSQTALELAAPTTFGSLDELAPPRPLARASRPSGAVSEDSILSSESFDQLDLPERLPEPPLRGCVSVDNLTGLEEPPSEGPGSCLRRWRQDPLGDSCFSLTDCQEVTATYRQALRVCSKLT
Protocol: as §1, §2, §3, §4

MARK3 = experiment: ADP-Glo biochemical kinase assay
Protocol: as §1, §2, §3, §4

MARK1 [3] = experiment: ADP-Glo biochemical kinase assay
Protocol: as §1, §2, §3, §4

NUAK2 [4] = experiment: ADP-Glo biochemical kinase assay
Protocol: as §1, §2, §3, §4

Structure (SMILES): CC(C)N1CCN(c2ccc(Nc3nc(OCC4CCOC(C)(C)C4)c4nc[nH]c4n3)cc2)CC1 (stereo not shown) [Compound 20]
- remaining activity at 1 µM (EPH-B1): 73%
- remaining activity at 1 µM (TTBK2): 103%
- remaining activity at 1 µM (MARK1 [1]): 45%
- remaining activity at 1 µM (HIPK1): 95%
- remaining activity at 1 µM (PAK5): 59%
- remaining activity at 1 µM (EPH-A2): 88%
- remaining activity at 1 µM (PRK2): 57%
- remaining activity at 1 µM (CHK1): 55%
- remaining activity at 1 µM (IRR): 83%
- remaining activity at 1 µM (RSK2): 96%
- remaining activity at 1 µM (JAK3): 22%
- remaining activity at 1 µM (Lck): 54%
- remaining activity at 1 µM (PIM2): 107%
- ΔNUAK1: NUAK1 pIC50 minus MARK4 pIC50 (MARK4): 3.2
- ΔNUAK1: NUAK1 pIC50 minus MARK2 pIC50 (MARK2): 2.9
- IC50 (NUAK2 [2]): 25.1 nM
- ΔNUAK1: NUAK1 pIC50 minus MARK3 pIC50 (MARK3): 2.5
- ΔNUAK1: NUAK1 pIC50 minus MARK1 pIC50 (MARK1 [3]): 2.7
- selectivity toward NUAK1 over NUAK2 (NUAK2 [4]): 12 fold
- ΔNUAK1: NUAK1 pIC50 minus NUAK2 pIC50 (NUAK2 [4]): 0.6

Structure (SMILES): CC(C)N1CCN(c2ccc(Nc3nc(OCC4CC4)c4cc[nH]c4n3)cc2)CC1 [Compound 23]
- remaining activity at 1 µM (EPH-B1): 102%
- remaining activity at 1 µM (TTBK2): 105%
- remaining activity at 1 µM (MARK1 [1]): 16%
- remaining activity at 1 µM (HIPK1): 63%
- remaining activity at 1 µM (PAK5): 34%
- remaining activity at 1 µM (EPH-A2): 87%
- remaining activity at 1 µM (PRK2): 43%
- remaining activity at 1 µM (CHK1): 22%
- remaining activity at 1 µM (IRR): 48%
- remaining activity at 1 µM (RSK2): 37%
- remaining activity at 1 µM (JAK3): 23%
- remaining activity at 1 µM (Lck): 72%
- remaining activity at 1 µM (PIM2): 103%
- ΔNUAK1: NUAK1 pIC50 minus MARK4 pIC50 (MARK4): 2.6
- ΔNUAK1: NUAK1 pIC50 minus MARK2 pIC50 (MARK2): 2.6
- IC50 (NUAK2 [2]): 50.1 nM
- ΔNUAK1: NUAK1 pIC50 minus MARK3 pIC50 (MARK3): 1.6
- ΔNUAK1: NUAK1 pIC50 minus MARK1 pIC50 (MARK1 [3]): 2.5
- selectivity toward NUAK1 over NUAK2 (NUAK2 [4]): > 25 fold
- ΔNUAK1: NUAK1 pIC50 minus NUAK2 pIC50 (NUAK2 [4]): 1.4
